In patent US10730895B2, “Carbidopa prodrug” (AbbVie Inc., priority 2014, dated 2020):

What was measured:
[1] = In vitro bioconversion study, intestinal S9 fractions (rat); type: in vitro ADME; details: for L-Dopa or Carbidopa Formation: rat intestinal S9 fraction; for half-life at 2.5 ug/mL: rat intestinal S9 fraction 1 mg/mL
Protocol: (§1) The in vitro bioconversion of the L-dopa phosphate prodrugs to L-dopa and the carbidopa phosphate prodrugs to carbidopa was evaluated in several studies. In brief, the L-dopa and carbidopa phosphate prodrugs (2.5 ug/mL) were incubated with tissue homogenate or fractions from rats, mini-pigs, or human, including blood, skin homogenate (3 mg/mL), liver microsomes (1 mg/mL), liver S9 fraction (1 mg/mL), kidney S9 fraction (1 mg/mL), and intestine S9 fractions (1 mg/mL). The reaction mixtures were incubated at 37° C. for 5 to 6 time points within 1 to 2 hours. At the end of each time point, the reaction mixtures were quenched by 2 to 3 volumes of 5% trichloroacetic acid in water. After quenching, the mixtures were centrifuged at 3000 rpm for 20 minutes, and the supernatants were analyzed by LC-MS for quantitation of the prodrug, L-dopa or carbidopa. The in vitro bioconversion was assessed by monitoring both time-dependent depletion of the prodrug and the formation of the corresponding L-dopa or carbidopa.

[2] = In vitro bioconversion study, kidney S9 fraction (rat); type: in vitro ADME; details: rat kidney S9 fraction 1 mg/mL
Protocol: as §1

[3] = In vitro bioconversion study, blood (human); type: in vitro ADME; details: for T1/2 / half-life at 2.5 ug/mL: prodrug 2.5 ug/mL, 37° C.
Protocol: (§2) In brief, the L-dopa and carbidopa phosphate prodrugs (2.5 ug/mL) were incubated with tissue homogenate or fractions from rats, mini-pigs, or human, including blood, skin homogenate (3 mg/mL), liver microsomes (1 mg/mL), liver S9 fraction (1 mg/mL), kidney S9 fraction (1 mg/mL), and intestine S9 fractions (1 mg/mL). The reaction mixtures were incubated at 37° C. for 5 to 6 time points within 1 to 2 hours. At the end of each time point, the reaction mixtures were quenched by 2 to 3 volumes of 5% trichloroacetic acid in water. After quenching, the mixtures were centrifuged at 3000 rpm for 20 minutes, and the supernatants were analyzed by LC-MS for quantitation of the prodrug, L-dopa or carbidopa. The in vitro bioconversion was assessed by monitoring both time-dependent depletion of the prodrug and the formation of the corresponding L-dopa or carbidopa.

[4] = In vitro bioconversion study, intestinal S9 fractions (human); type: in vitro ADME; details: for L-Dopa or Carbidopa Formation: human intestinal S9 fraction; for half-life at 2.5 ug/mL: human intestinal S9 fraction 1 mg/mL
Protocol: as §1

[5] = In vitro bioconversion study, skin homogenates (mini-pig); type: in vitro ADME; details: for L-Dopa or Carbidopa Formation: mini-pig skin homogenate; for T1/2 / half-life at 2.5 ug/mL: mini-pig skin homogenate 3 mg/mL, 37° C.; for half-life at 2.5 ug/mL: minipig
Protocol: as §2

[6] = 1-day stability study of individual prodrugs in aqueous solution; type: physicochemical; details: aqueous solution 80 μg/mL, ambient storage
Protocol: The L-dopa phosphate prodrugs and the carbidopa phosphate prodrugs were evaluated in a stability study.

[7] = In vitro bioconversion study, kidney S9 fraction (human); type: in vitro ADME; details: human kidney S9 fraction 1 mg/mL
Protocol: as §1

[8] = In vitro bioconversion study, liver S9 fraction (human); type: in vitro ADME; details: human liver S9 fraction 1 mg/mL
Protocol: as §1

[9] = In vitro bioconversion study, human liver microsomes; type: in vitro ADME; details: human liver microsomes 1 mg/mL
Protocol: as §1

[10] = In vitro bioconversion study, blood (mini-pig); type: in vitro ADME; details: for T1/2 / half-life at 2.5 ug/mL: prodrug 2.5 ug/mL, 37° C.; for half-life at 2.5 ug/mL: minipig
Protocol: as §2

[11] = In vitro bioconversion study, blood (rat); type: in vitro ADME; details: for half-life at 2.5 ug/mL: prodrug 2.5 ug/mL, 37° C.
Protocol: as §2

[12] = In vitro bioconversion study, skin homogenates (human); type: in vitro ADME; details: for L-Dopa or Carbidopa Formation: human skin homogenate; for T1/2 / half-life at 2.5 ug/mL: human skin homogenate 3 mg/mL, 37° C.
Protocol: as §1

[13] = In vitro bioconversion study, liver S9 fraction (rat); type: in vitro ADME; details: rat liver S9 fraction 1 mg/mL
Protocol: as §1

[14] = Solubility study in water by visual assessment; type: physicochemical; details: for solubility: thermodynamic from solid, water, ambient
Protocol: The L-dopa phosphate prodrugs and the carbidopa phosphate prodrugs were evaluated in a solubility study. The solubility values of the phosphate prodrugs in water under ambient conditions were determined by visual assessment. Table 13-A reports the results of the study, including the measured values for L-dopa and carbidopa.

[15] = In vitro bioconversion study, skin homogenates (rat); type: in vitro ADME; details: for L-Dopa or Carbidopa Formation: rat skin homogenate; for T1/2 / half-life at 2.5 ug/mL: rat skin homogenate 3 mg/mL, 37° C.
Protocol: as §2

[16] = 1-day stability study, diphosphate combination solution; type: physicochemical; details: combined solution L-dopa 3′,4′-diphosphate 35 mg/mL + carbidopa 3′,4′-diphosphate 8.7 mg/mL, pH 6.2, room temperature, nitrogen purged
Protocol: In addition, a solution combining the diphosphates of each compound (L-dopa 3′, 4′-diphosphate at 35 mg/mL and carbidopa 3′, 4′-diphosphate at 8.7 mg/mL) was monitored over one day at room temperature. This sample was purged with nitrogen to remove oxygen.

[17] = In vitro bioconversion study, liver S9 fraction (mini-pig); type: in vitro ADME; details: mini-pig liver S9 fraction 1 mg/mL
Protocol: as §1

[18] = Carbidopa diphosphate pharmacokinetics study in mini-pigs; type: in vivo; details: for Estimated Conversion % (Based on Carbidopa AUC): mini-pig, SC, dose 8.5 mg/kg
Protocol: The in vivo conversion of the carbidopa diphosphate to carbidopa was evaluated in a mini-pig pharmacokinetics study in which the prodrug was administered in aqueous solution subcutaneously to a group of three mini-pigs. For comparison, a pharmacokinetics study with carbidopa also was conducted to help assess the in vivo conversion of the carbidopa prodrugs. The estimated in vivo conversion of the carbidopa diphosphate to carbidopa was approximately 100%, based on the carbidopa exposures.

[19] = 7-day stability study, 4′-monophosphate combination solution; type: physicochemical; details: combined solution L-dopa 4′-monophosphate 200 mg/mL + carbidopa 4′-monophosphate 50 mg/mL, pH 7.4, room temperature
Protocol: In addition, a solution combining the L-dopa 4′-monophosphate at 200 mg/mL and carbidopa 4′-monophosphate at 50 mg/mL was monitored over 7 days at room temperature. These samples were prepared with and without purging with nitrogen to remove oxygen.

[20] = mini-pig, 15:1 combination 48/3.2 mg/kg
Protocol: In this study, the pig received a 16-hour subcutaneous infusion of a combination of the L-dopa 4′-monophosphate and the carbidopa 4′-monophosphate together in an aqueous solution at a dose ratio of 15:1 without an initial bolus dose. The doses were 48/3.2 mg/kg for L-dopa 4′-monophosphate and the carbidopa 4′-monophosphate, respectively.

[21] = type: in vivo, rats; details: rat, 4:1 combination, SC bolus 60/14 mg/kg then SC infusion 300/71 mg/kg
Protocol: After 1.5 hours, the combination was dosed again via continuous infusion at a dose of 300/71 mg/kg over next 14.5 hours. Blood samples were collected at 0, 0.25, 1, 6, 16, and 24 hours post dose. […] FIG. 7 provides a time-concentration profile for L-dopa and L-dopa 4′-monophosphate blood levels after administration of the combination of 4′-monophosphate prodrugs at a 4:1 ratio. […] Steady state concentration of ˜1 μg/mL was maintained over the infusion period for carbidopa. […] FIG. 9 provides a time-concentration profile for carbidopa and carbidopa 4′-monophosphate blood levels after administration of the combination of 4′-monophosphate prodrugs at a 4:1 ratio.

[22] = Pharmacokinetic study in rats, individual prodrug IV or SC; type: in vivo, Sprague-Dawley rats; details: rat; for AUC: male, Sprague-Dawley, plasma, dose 1.25 mg/kg, L-dopa and carbidopa in aqueous solution, read-out: Carbidopa AUCO-8 h; for Estimated Conversion % (Based on L-dopa AUC): dose 8.5 mg/kg
Protocol: For comparison, a rat pharmacokinetics study with L-dopa and carbidopa was conducted to help assess the in vivo conversion of the prodrugs. The study design and measured exposures of L-dopa and carbidopa are summarized in Tables 16-A and 16-B, respectively. In brief, groups of three male Sprague-Dawley rats were given (1) L-dopa and carbidopa in aqueous solution, or (2) the individual prodrug in aqueuous solution intravenously or subcutaneously. Blood samples were collected at multiple time points over 24 hours into a collection tube containing NaAsO4, EDTA, and ascorbic acid. […] The supernatants were subjected to LC-MS analysis for quantitation of prodrug, L-dopa or carbidopa.

[23] = Local tolerability, single SC bolus in rats; type: in vivo; details: concentrations up to 125 mg/mL
[24] = listed as 3′,4′-diphosphate prodrug of carbidopa
[25] = listed as diphosphate prodrug of carbidopa

Compound | L-Dopa or Carbidopa Formation [1] | half-life at 2.5 ug/mL [1] [h] | stability and L-dopa or carbidopa formation [2] | L-Dopa or Carbidopa Formation [3] | L-Dopa or Carbidopa Formation [4] | half-life at 2.5 ug/mL [4] [h] | L-Dopa or Carbidopa Formation [5] | T1/2 [5] | stability and L-dopa or carbidopa formation [7] | stability and L-dopa or carbidopa formation [8] | stability and L-dopa or carbidopa formation [9] | L-Dopa or Carbidopa Formation [10] | L-Dopa or Carbidopa Formation [11] | half-life at 2.5 ug/mL [11] [h] | L-Dopa or Carbidopa Formation [12] | stability and L-dopa or carbidopa formation [13] | L-Dopa or Carbidopa Formation [15] | stability and L-dopa or carbidopa formation [17] | half-life at 2.5 ug/mL [3] [h] | half-life at 2.5 ug/mL [10] [h] | other results
C[C@@](Cc1ccc(OP(=O)(O)O)c(OP(=O)(O)O)c1)(NN)C(=O)O [Carbidopa 3′,4′-diphosphate] | Yes | 1.32 | stable without formation of L-dopa or carbidopa observed | No | Yes | 0.525 | No | stable | stable without formation of L-dopa or carbidopa observed | stable without formation of L-dopa or carbidopa observed | stable without formation of L-dopa or carbidopa observed | No | Yes | 0.883 | No | stable without formation of L-dopa or carbidopa observed | No | stable without formation of L-dopa or carbidopa observed |  |  | T1/2 [3, 24]: stable; T1/2 [3, 25]: not dephosphorylated; % Remaining After One Day ([6]; pH 6.8): >97%; T1/2 [10, 24]: stable; T1/2 [10, 25]: not dephosphorylated; T1/2 [12]: stable; solubility ([14]; pH 5.5, amorphous): > 247 mg/mL; T1/2 [15]: stable; % Remaining After One Day [16]: >99%; Estimated Conversion % (Based on Carbidopa AUC) [18, 24]: 100%; Estimated Conversion % (Based on Carbidopa AUC) ([18]; listed as carbidopa diphosphate): approximately 100%
C[C@@](Cc1ccc(O)c(OP(=O)(O)O)c1)(NN)C(=O)O [Carbidopa 3′-phosphate, Carbidopa 3′-monophosphate] |  |  |  | Yes |  |  | Yes |  |  |  |  | Yes | Yes | 0.342 | Yes |  | Yes |  | 0.967 | 0.148 | half-life at 2.5 ug/mL [5]: 6.88 h; % Remaining After One Day ([6]; pH 6.5): >94%; half-life at 2.5 ug/mL [12]: 10 h; solubility ([14]; pH 7.1, amorphous): > 96 mg/mL; half-life at 2.5 ug/mL [15]: 12.1 h
C[C@@](Cc1ccc(OP(=O)(O)O)c(O)c1)(NN)C(=O)O [Carbidopa 4′-phosphate, Carbidopa 4′-monophosphate] | Yes | 1.23 | stable without formation of L-dopa or carbidopa observed | Yes | Yes | 0.402 | Yes |  | stable without formation of L-dopa or carbidopa observed | stable without formation of L-dopa or carbidopa observed | stable without formation of L-dopa or carbidopa observed | Yes | Yes | 0.248 | Yes | stable without formation of L-dopa or carbidopa observed | Yes | stable without formation of L-dopa or carbidopa observed | 1.08 | 0.147 | half-life at 2.5 ug/mL [5]: 1.9 h; % Remaining After 7 Days ([19]; Nitrogen Purged): >99%; % Remaining After 7 Days ([19]; Non-Purged): >97%; % Remaining After One Day ([6]; pH 6.8): >98%; half-life at 2.5 ug/mL [12]: 2.3 h; solubility compared to L-dopa and carbidopa ([14]; FIG. 1, pH of 7.4): increased solubility; solubility ([14]; pH 7.4, L-dopa 4′-phosphate crystalline, carbidopa 4′-phosphate amorphous): > 200 mg/mL; half-life at 2.5 ug/mL [15]: 4.52 h; Exposure of the remaining carbidopa 4′-monophosphate, % of the carbidopa exposure [20]: ~22%; Exposure of the remaining carbidopa 4′-monophosphate, % of carbidopa [21]: ~8%
C[C@@](Cc1ccc(O)c(O)c1)(NN)C(=O)O [Carbidopa, (2S)-3-(3,4-dihydroxyphenyl)-2-hydrazino-2-methylpropanoic acid] |  |  |  |  |  |  |  |  |  |  |  |  |  |  |  |  |  |  |  |  | solubility ([14]; pH 4-7, crystalline (carbidopa: crystalline monohydrate)): < 4 mg/mL; AUC ([22]; IV): 860 ng·h/mL; AUC ([22]; SC): 685 ng·h/mL; AUC ([18]; minipig, in vivo, sc, 2 mg/kg): 1610 ng·h/mL
N[C@@H](Cc1ccc(OP(=O)(O)O)c(OP(=O)(O)O)c1)C(=O)O [L-dopa 3′,4′-diphosphate] | Yes | 0.903 | stable without formation of L-dopa or carbidopa observed | Yes | Yes | 1.53 | No | stable | stable without formation of L-dopa or carbidopa observed | stable without formation of L-dopa or carbidopa observed | stable without formation of L-dopa or carbidopa observed | Yes | Yes | 0.1 | No | stable without formation of L-dopa or carbidopa observed | No | stable without formation of L-dopa or carbidopa observed | 2.3 | 2.08 | % Remaining After One Day ([6]; pH 7.0): >99%; local intolerance (clinical signs, microscopic findings) [23]: no adverse clinical signs or microscopic findings indicative of local intolerance; T1/2 [12]: stable; solubility ([14]; pH 5.5, amorphous): > 330 mg/mL; T1/2 [15]: stable; % Remaining After One Day [16]: >99%; Estimated Conversion % (Based on L-dopa AUC) ([22]; IV): >100%; Estimated Conversion % (Based on L-dopa AUC) ([22]; SC): >100%
